In ChEMBL document CHEMBL4002562, “Terminal functionalized thiourea-containing dipeptides as multidrug-resistance reversers that target 20S proteasome and cell proliferation” (Eur J Med Chem, 2017):

Columns and labels:
[1] = molecular target: T1, Proteasome Macropain subunit MB1 (Homo sapiens, UniProt P28074); test: Inhibition of chymotrypsin-like activity of human 20S proteasome using Suc-LLVY-AMC as substrate by fluorometric method
T1 sequence (P28074 whole entry): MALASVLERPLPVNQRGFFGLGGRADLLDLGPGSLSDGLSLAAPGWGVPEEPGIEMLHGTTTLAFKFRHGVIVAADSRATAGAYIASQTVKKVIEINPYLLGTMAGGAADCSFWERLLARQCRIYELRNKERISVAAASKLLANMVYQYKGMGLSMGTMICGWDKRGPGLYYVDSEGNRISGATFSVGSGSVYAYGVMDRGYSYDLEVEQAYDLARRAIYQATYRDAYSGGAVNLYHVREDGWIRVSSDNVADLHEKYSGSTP

[2] = tested on: NCI-H460; test: Cytotoxicity against human NCI-H460 cells after 48 hrs by MTT assay; settings: NCI-H460, 48 h
[3] = tested on: NCI-H460; test: Resistant factor, ratio of IC50 for human doxorubicin-resistant NCI-H460 cells to IC50 for human NCI-H460 cells; assay type: functional
[4] = tested on: HepG2; test: Cytotoxicity against human doxorubicin-resistant HepG2 cells after 48 hrs by MTT assay; assay type: functional, cell-based; settings: HepG2, 48 h
[5] = tested on: HepG2; test: Resistant factor, ratio of IC50 for human doxorubicin-resistant HepG2 cells to IC50 for human HepG2 cells; assay type: functional
[6] = tested on: L02; test: Cytotoxicity against human HL-7702 cells after 48 hrs by MTT assay; assay type: cell-based; settings: L02, 48 h
[7] = tested on: NCI-H460; test: cells; settings: Homo sapiens, NCI-H460, 48 h
[8] = tested on: HepG2; test: cells; settings: Homo sapiens, HepG2, 48 h
Description: Cytotoxicity against human HepG2 cells after 48 hrs by MTT assay

[9] = molecular target: Proteasome Macropain subunit (Homo sapiens, UniProt P49721); test: Inhibition of trypsin-like activity of human 20S proteasome using Bz-VGR-AMC as substrate by fluorometric method
Sequence of Proteasome Macropain subunit (P49721 whole entry): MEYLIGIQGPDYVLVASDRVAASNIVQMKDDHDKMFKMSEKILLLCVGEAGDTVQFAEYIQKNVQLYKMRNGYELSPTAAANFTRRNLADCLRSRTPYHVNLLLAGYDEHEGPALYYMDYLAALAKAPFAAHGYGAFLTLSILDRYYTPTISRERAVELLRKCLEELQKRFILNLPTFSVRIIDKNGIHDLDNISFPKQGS

[10] = tested on: NCI-H460; test: Induction of apoptosis in human NCI-H460 cells assessed as damaged cells at 4 uM after 24 hrs by Annexin V-PE/7-AAD staining-based flow cytometric analysis (reference value: 9.98%); assay type: functional
[11] = tested on: NCI-H460; test: Induction of apoptosis in human NCI-H460 cells assessed as late apoptotic/necrotic cells at 4 uM after 24 hrs by Annexin V-PE/7-AAD staining-based flow cytometric analysis (reference value: 5.73%); assay type: functional
[12] = tested on: NCI-H460; test: Induction of apoptosis in human NCI-H460 cells assessed as early apoptotic cells at 4 uM after 24 hrs by Annexin V-PE/7-AAD staining-based flow cytometric analysis (reference value: 1.33%); assay type: functional
[13] = tested on: NCI-H460; test: Induction of apoptosis in human NCI-H460 cells assessed as viable cells at 4 uM after 24 hrs by Annexin V-PE/7-AAD staining-based flow cytometric analysis (reference value: 83%); assay type: functional; settings: NCI-H460, 24 h, read-out: Activity
[14] = tested on: NCI-H460; test: Induction of apoptosis in human NCI-H460 cells assessed as damaged cells at 4 uM after 24 hrs in presence of p-gp inhibitor LY335979 by Annexin V-PE/7-AAD staining-based flow cytometric analysis (reference value: 9.98%); assay type: functional
[15] = tested on: NCI-H460; test: Induction of apoptosis in human NCI-H460 cells assessed as late apoptotic/necrotic cells at 4 uM after 24 hrs in presence of p-gp inhibitor LY335979 by Annexin V-PE/7-AAD staining-based flow cytometric analysis (reference value: 5.73%); assay type: functional
[16] = tested on: NCI-H460; test: Induction of apoptosis in human NCI-H460 cells assessed as early apoptotic cells at 4 uM after 24 hrs in presence of p-gp inhibitor LY335979 by Annexin V-PE/7-AAD staining-based flow cytometric analysis (reference value: 1.33%); assay type: functional
[17] = tested on: NCI-H460; test: Induction of apoptosis in human NCI-H460 cells assessed as viable cells at 4 uM after 24 hrs in presence of p-gp inhibitor LY335979 by Annexin V-PE/7-AAD staining-based flow cytometric analysis (reference value: 83%); assay type: functional; settings: NCI-H460, 24 h, read-out: Activity
[18] = tested on: NCI-H460; test: Induction of apoptosis in doxorubicin-resistant human NCI-H460 cells assessed as damaged cells at 4 uM after 24 hrs by Annexin V-PE/7-AAD staining-based flow cytometric analysis (reference value: 0.493%); assay type: functional
[19] = tested on: NCI-H460; test: Induction of apoptosis in doxorubicin-resistant human NCI-H460 cells assessed as late apoptotic/necrotic cells at 4 uM after 24 hrs by Annexin V-PE/7-AAD staining-based flow cytometric analysis (reference value: 2.87%); assay type: functional
[20] = tested on: NCI-H460; test: Induction of apoptosis in doxorubicin-resistant human NCI-H460 cells assessed as early apoptotic cells at 4 uM after 24 hrs by Annexin V-PE/7-AAD staining-based flow cytometric analysis (reference value: 1.40%); assay type: functional
[21] = tested on: NCI-H460; test: Induction of apoptosis in doxorubicin-resistant human NCI-H460 cells assessed as viable cells at 4 uM after 24 hrs by Annexin V-PE/7-AAD staining-based flow cytometric analysis (reference value: 95.2%); assay type: functional; settings: NCI-H460, 24 h, read-out: Activity
[22] = tested on: NCI-H460; test: Induction of apoptosis in doxorubicin-resistant human NCI-H460 cells assessed as damaged cells at 4 uM after 24 hrs in presence of p-gp inhibitor LY335979 by Annexin V-PE/7-AAD staining-based flow cytometric analysis (reference value: 0.493%); assay type: functional
[23] = tested on: NCI-H460; test: Induction of apoptosis in doxorubicin-resistant human NCI-H460 cells assessed as late apoptotic/necrotic cells at 4 uM after 24 hrs in presence of p-gp inhibitor LY335979 by Annexin V-PE/7-AAD staining-based flow cytometric analysis (reference value: 2.87%); assay type: functional
[24] = tested on: NCI-H460; test: Induction of apoptosis in doxorubicin-resistant human NCI-H460 cells assessed as early apoptotic cells at 4 uM after 24 hrs in presence of p-gp inhibitor LY335979 by Annexin V-PE/7-AAD staining-based flow cytometric analysis (reference value: 1.40%); assay type: functional
[25] = tested on: NCI-H460; test: Induction of apoptosis in doxorubicin-resistant human NCI-H460 cells assessed as viable cells at 4 uM after 24 hrs in presence of p-gp inhibitor LY335979 by Annexin V-PE/7-AAD staining-based flow cytometric analysis (reference value: 95.2%); assay type: functional; settings: NCI-H460, 24 h, read-out: Activity

Row | SMILES | IC50 [1] | IC50 [2] | Ratio IC50 [3] | IC50 [4] | Ratio IC50 [5] | IC50 [6] | IC50 [7] | IC50 [8] | also measured
1 | CC[C@H](C)[C@H](/N=C(/Nc1cccc(C(F)(F)F)c1)SC)C(=O)N[C@H](Cc1ccccc1)C(=O)Nc1ccc(Cl)c(Cl)c1 | 22.2 µM | – | – | – | – | – | – | – | –
2 | CC[C@H](C)[C@H](NC(=S)Nc1cccc([N+](=O)[O-])c1)C(=O)N[C@H](Cc1ccccc1)C(=O)Nc1cccc(OC)c1 | 22.3 µM | – | – | – | – | – | – | – | –
3 | CC[C@H](C)[C@H](NC(=S)Nc1ccc(Br)cc1)C(=O)N[C@H](Cc1ccccc1)C(=O)Nc1ccc(C)c(Cl)c1 | > 50 µM | – | – | – | – | – | – | – | –
4 | CC[C@H](C)[C@H](NC(=S)Nc1cccc([N+](=O)[O-])c1)C(=O)N[C@H](Cc1ccccc1)C(=O)Nc1ccc(Br)cc1 | 2.71 µM | 16.2 µM | 2.18 | 48.2 µM | 2.76 | > 50 µM | 35.2 µM | 17.4 µM | –
5 | CC[C@H](C)[C@H](/N=C(/Nc1cccc([N+](=O)[O-])c1)SC)C(=O)N[C@H](Cc1ccccc1)C(=O)Nc1ccc(C)c(C)c1 | > 50 µM | – | – | – | – | – | – | – | –
6 | CC[C@H](C)[C@H](NC(=S)Nc1cccc([N+](=O)[O-])c1)C(=O)N[C@H](Cc1ccccc1)C(=O)Nc1cccc(Cl)c1 | 5.84 µM | 13.6 µM | 2.32 | > 50 µM | – | > 50 µM | 31.7 µM | 20.7 µM | –
7 | CC[C@H](C)[C@H](NC(=S)Nc1cccc(C(F)(F)F)c1)C(=O)N[C@H](Cc1ccccc1)C(=O)Nc1cccc(C(F)(F)F)c1 | 19.6 µM | – | – | – | – | – | – | – | –
8 | CC[C@H](C)[C@H](NC(=S)Nc1cccc([N+](=O)[O-])c1)C(=O)N[C@H](Cc1ccccc1)C(=O)Nc1ccc(Cl)c(Cl)c1 | 1.36 µM | 14.8 µM | 2.18 | 37.4 µM | 2.82 | > 50 µM | 32.3 µM | 13.3 µM | –
9 | CC[C@H](C)[C@H](NC(=S)Nc1cccc([N+](=O)[O-])c1)C(=O)N[C@H](Cc1ccccc1)C(=O)Nc1cccc(C(F)(F)F)c1 | 0.0086 µM | 1.7 µM | 3.96 | 10.2 µM | 2.12 | > 50 µM | 6.74 µM | 4.8 µM | IC50 [9]: Not Active; Activity [10]: 4.72%; Activity [11]: 7.76%; Activity [12]: 13.3%; viability at 4 µM [13]: 74.2%; Activity [14]: 13.9%; Activity [15]: 24.2%; Activity [16]: 4.86%; viability at 4 µM [17]: 57%; Activity [18]: 1.9%; Activity [19]: 5.96%; Activity [20]: 11.4%; viability at 4 µM [21]: 80.8%; Activity [22]: 5.72%; Activity [23]: 29.9%; Activity [24]: 31.9%; viability at 4 µM [25]: 32.5%
10 | CC[C@H](C)[C@H](/N=C(/Nc1cccc(C(F)(F)F)c1)SC)C(=O)N[C@H](Cc1ccccc1)C(=O)Nc1cccc(C(F)(F)F)c1 | 8.83 µM | 20.3 µM | – | 49.2 µM | 2.55 | > 50 µM | > 50 µM | 19.3 µM | IC50 [9]: Not Active
11 | CC[C@H](C)[C@H](NC(=S)Nc1cccc([N+](=O)[O-])c1)C(=O)N[C@H](Cc1ccccc1)C(=O)Nc1ccc(C)c(C)c1 | > 50 µM | – | – | – | – | – | – | – | –
12 | CC[C@H](C)[C@H](NC(=S)Nc1ccc(C(F)(F)F)cc1)C(=O)N[C@H](Cc1ccccc1)C(=O)Nc1cccc(Br)c1 | 0.022 µM | 7.13 µM | 1.58 | 27.4 µM | 1.47 | > 50 µM | 11.2 µM | 18.6 µM | –
13 | CC[C@H](C)[C@H](NC(=S)Nc1cccc([N+](=O)[O-])c1)C(=O)N[C@H](Cc1ccccc1)C(=O)Nc1cccc(F)c1 | 3.57 µM | 12.3 µM | 2.33 | 36.8 µM | 2.04 | > 50 µM | 28.6 µM | 18 µM | –
14 | CC[C@H](C)[C@H](NC(=S)Nc1cccc([N+](=O)[O-])c1)C(=O)N[C@H](Cc1ccccc1)C(=O)Nc1ccc(OC)cc1 | 29 µM | – | – | – | – | – | – | – | –
15 | CC[C@H](C)[C@H](NC(=S)Nc1cccc([N+](=O)[O-])c1)C(=O)N[C@H](Cc1ccccc1)C(=O)Nc1ccc(C)c(Cl)c1 | > 50 µM | – | – | – | – | – | – | – | –
16 | CC[C@H](C)[C@H](NC(=S)Nc1cccc(C(F)(F)F)c1)C(=O)N[C@H](Cc1ccccc1)C(=O)Nc1ccc(Cl)c(Cl)c1 | 0.017 µM | 6.14 µM | 2.52 | 29.6 µM | 2.44 | > 50 µM | 15.5 µM | 12.1 µM | IC50 [9]: Not Active
17 | CC[C@H](C)[C@H](NC(=S)Nc1cccc([N+](=O)[O-])c1)C(=O)N[C@H](Cc1ccccc1)C(=O)Nc1ccc(F)cc1 | 1.97 µM | 20.2 µM | 2.09 | 48.5 µM | 2.78 | > 50 µM | 42.4 µM | 17.5 µM | –
18 | COc1cccc2c1C(=O)c1c(O)c3c(c(O)c1C2=O)C[C@@](O)(C(=O)CO)C[C@@H]3O[C@H]1C[C@H](N)[C@H](O)[C@H](C)O1 [DOXORUBICIN] | – | – | – | > 50 µM | – | 12.2 µM | – | 6.91 µM | –
